Measured values: the NIST ThermoML archive (doi:10.1016/j.jct.2015.04.005)
± gives the expanded uncertainty stated by the source.

Experiment: xn = mol fraction of the nth substance listed
Conditions: 102.24 kPa, Liquid; for speed of sound: Frequency=5 MHz, Single path-length method; for mass density: Vibrating tube method

CCC(=O)[O-].C[NH2+]CCO [2-hydroxy-N-methylethanaminium propionate] + O
Conditions | mass density, 298.15 K [kg/m3] | mass density, 303.15 K [kg/m3] | mass density, 308.15 K [kg/m3] | mass density, 313.15 K [kg/m3] | speed of sound, 298.15 K [m/s] | speed of sound, 303.15 K [m/s] | speed of sound, 308.15 K [m/s] | speed of sound, 313.15 K [m/s]
x1 = 0.02 | 1016.8 ± 1.7 | 1013.4 ± 1.7 | 1010 ± 1.7 | 1006.6 ± 1.7 | 1628.3 ± 8.1 | 1630.6 ± 8.1 | 1632.8 ± 8 | 1635.1 ± 8
x1 = 0.0501 | 1039.1 ± 1.7 | 1036.3 ± 1.7 | 1033.5 ± 1.7 | 1030.6 ± 1.7 | 1746.5 ± 8 | 1741.6 ± 8 | 1736.7 ± 8 | 1731.8 ± 8
x1 = 0.1001 | 1056.2 ± 1.7 | 1053.4 ± 1.7 | 1050.7 ± 1.7 | 1047.9 ± 1.7 | 1820.9 ± 8 | 1810.8 ± 8 | 1800.7 ± 8 | 1790.6 ± 8
x1 = 0.101 | 1055.8 ± 1.7 | 1052.8 ± 1.7 | 1049.9 ± 1.7 | 1046.9 ± 1.7 | 1818.1 ± 8 | 1807 ± 8 | 1795.9 ± 8 | 1784.7 ± 8
x1 = 0.2006 | 1072.5 ± 1.7 | 1069.5 ± 1.7 | 1066.5 ± 1.7 | 1063.5 ± 1.7 | 1827.2 ± 8 | 1812.4 ± 8 | 1797.6 ± 8 | 1782.8 ± 8
x1 = 0.301 | 1072.6 ± 1.7 | 1069.5 ± 1.7 | 1066.4 ± 1.7 | 1063.3 ± 1.7 | 1790.1 ± 8 | 1775.9 ± 8 | 1761.6 ± 8 | 1747.4 ± 8
x1 = 0.3978 | 1074 ± 1.7 | 1070.9 ± 1.7 | 1067.9 ± 1.7 | 1064.8 ± 1.7 | 1757 ± 8 | 1742.3 ± 8 | 1727.6 ± 8 | 1712.8 ± 8
x1 = 0.4976 | 1072.3 ± 1.7 | 1069.2 ± 1.7 | 1066.1 ± 1.7 | 1063 ± 1.7 | 1726.2 ± 8 | 1711 ± 8 | 1695.7 ± 8 | 1680.5 ± 8
x1 = 0.5972 | 1071.9 ± 1.7 | 1068.7 ± 1.7 | 1065.6 ± 1.7 | 1062.5 ± 1.7 | 1721 ± 8 | 1705.5 ± 8 | 1689.9 ± 8 | 1674.4 ± 8
x1 = 0.8006 | 1068.7 ± 1.7 | 1065.4 ± 1.7 | 1062.2 ± 1.7 | 1059 ± 1.7 | 1684.5 ± 8 | 1668.3 ± 8 | 1652 ± 8 | 1635.7 ± 8
x1 = 1 | 1065.8 ± 1.7 | 1062.6 ± 1.7 | 1059.4 ± 1.7 | 1056.2 ± 1.7 | 1638.4 ± 8.1 | 1624.6 ± 8.1 | 1607 ± 8.1 | 1588.5 ± 8.1
